Some test systems named below: HOP-92 NSCLC; NCI-H460 lung; SN12C renal; UO-31 renal; HT29 colon; ACHN renal; HS 578T breast; NCI-H226 lung; HCT-15 colon; PC-3 prostate.
Common to all, as to experiment: growth of human tumour cells (NCI), 48 h

Each structure is given as a SMILES string.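 Where inhibition never reached the appropriate level, the endpoint shown equals the highest concentration tested. Otherwise, values were interpolated linearly from a five-concentration, 48-hour dose response in 96-well plates. GI50 marks 50% less growth. TGI: total growth inhibition.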

For the compound `O=C(Nc1cccc2[nH]c(C(F)(F)F)nc12)c1cc(Cl)ccc1Cl`, the GI50 is 2.09 µM in the assay on HOP-92 NSCLC; 3.09 µM in the assay on NCI-H460 lung; 2.78 µM in the assay on SN12C renal; 2.78 µM in the assay with UO-31 renal; 3.62 µM in the assay on HT29 colon; 2.88 µM in the assay with ACHN renal. For the same compound, the GI50 in the assay with HS 578T breast is 2.91 µM; with NCI-H226 lung, 3.39 µM; in the assay on HCT-15 colon, 3.38 µM; in the assay on PC-3 prostate, 3.1 µM. Besides, the TGI is 6.72 µM with HOP-92 NSCLC; > 100 µM with NCI-H460 lung; 9.59 µM in the assay with SN12C renal; 11.3 µM in the assay with UO-31 renal; 14.7 µM in the assay on HT29 colon; 16.6 µM in the assay with ACHN renal. Further, the TGI was 12.9 µM in the assay with HS 578T breast, 25.5 µM in the assay with NCI-H226 lung, 19.4 µM with HCT-15 colon and 92.9 µM in the assay with PC-3 prostate.
As to `CC(=O)/C=C/c1ccc(Nc2c3ccccc3nc3occ(Cl)c23)cc1`, the GI50 in the assay with HOP-92 NSCLC is 4.51 µM; in the assay with NCI-H460 lung, 2.96 µM; with SN12C renal, 3.29 µM; in the assay on UO-31 renal it was 14.2 µM; in the assay on HT29 colon it was 2.58 µM; with ACHN renal, 3.32 µM. The GI50 is 5.75 µM with HS 578T breast, 4.87 µM in the assay with NCI-H226 lung, 2.09 µM in the assay with HCT-15 colon and 2.63 µM in the assay with PC-3 prostate. Further, the TGI is 29.4 µM with HOP-92 NSCLC; 14.6 µM in the assay with NCI-H460 lung; 14.3 µM in the assay on SN12C renal; > 100 µM with UO-31 renal; > 100 µM in the assay with HT29 colon; 12.5 µM in the assay on ACHN renal. For the same compound, the TGI in the assay on HS 578T breast is > 100 µM; with NCI-H226 lung it was 21.7 µM; with HCT-15 colon, 11.7 µM; in the assay on PC-3 prostate, 18.8 µM.
`COc1cc([C@@H]2c3cc4c(cc3[C@H](OC(C)=O)[C@H]3COC(=O)[C@@H]23)OCO4)cc(OC)c1OC`: the GI50 is 2.55 µM in the assay with HOP-92 NSCLC; 0.322 µM with NCI-H460 lung; 0.759 µM with SN12C renal; 0.493 µM in the assay with UO-31 renal; 0.343 µM in the assay with HT29 colon; 0.766 µM in the assay with ACHN renal. Also, the GI50 is 0.253 µM with HS 578T breast, 3.82 µM in the assay on NCI-H226 lung, 0.371 µM in the assay on HCT-15 colon and 0.318 µM in the assay on PC-3 prostate. The TGI was > 100 µM in the assay with HOP-92 NSCLC; 3.3 µM in the assay on NCI-H460 lung; > 100 µM in the assay with SN12C renal; > 100 µM in the assay on UO-31 renal; > 100 µM with ACHN renal; 0.682 µM in the assay with HS 578T breast. In addition, the TGI in the assay on HCT-15 colon and in the assay on PC-3 prostate was > 100 µM throughout.
For the compound `CC(=O)c1ccc2c(c1)N(CCCN1CCN(CCO)CC1)c1ccccc1S2`, the GI50 with HOP-92 NSCLC is 1.1 µM; in the assay with NCI-H460 lung, 2.05 µM; in the assay on SN12C renal, 3.88 µM; in the assay on UO-31 renal it was 1.79 µM; with HT29 colon, 1.7 µM; in the assay with ACHN renal, 2.98 µM. Moreover, the GI50 in the assay with HS 578T breast is 1.66 µM; in the assay with NCI-H226 lung it was 7.14 µM; in the assay on HCT-15 colon, 1.99 µM; in the assay on PC-3 prostate, 2.4 µM. For the same compound, the TGI was 5.97 µM in the assay on HOP-92 NSCLC; 4.09 µM with NCI-H460 lung; 17 µM with SN12C renal; 5.46 µM in the assay with UO-31 renal; 3.75 µM in the assay on HT29 colon; 11.4 µM in the assay on ACHN renal. The TGI turned out to be 4.52 µM in the assay on HS 578T breast, 27.9 µM in the assay on NCI-H226 lung, 5.01 µM with HCT-15 colon and 9.35 µM in the assay with PC-3 prostate.
`C=C1C(=O)O[C@H]2[C@H]1CC/C(COC(=O)NCc1ccc(Cn3c(=O)sn(CCCCC)c3=O)cc1)=C\CC[C@@]1(C)O[C@@H]21`: the GI50 was 1.38 µM in the assay on HOP-92 NSCLC; 3.42 µM with NCI-H460 lung; 1.71 µM in the assay on SN12C renal; 1.46 µM in the assay on UO-31 renal; 2.09 µM with HT29 colon; 1.68 µM in the assay with ACHN renal. Also, the GI50 was 2.79 µM in the assay on HS 578T breast, 10.7 µM with NCI-H226 lung, 1.66 µM in the assay on HCT-15 colon and 1.92 µM with PC-3 prostate. In addition, the TGI with HOP-92 NSCLC worked out at 3.01 µM; in the assay with NCI-H460 lung it was 12.5 µM; in the assay with SN12C renal it was 3.72 µM; with UO-31 renal, 2.8 µM; with HT29 colon, 3.89 µM; in the assay on ACHN renal, 3.14 µM. The TGI turned out to be 14 µM with HS 578T breast, 27.6 µM in the assay on NCI-H226 lung, 3.23 µM with HCT-15 colon and 3.8 µM in the assay on PC-3 prostate.
In the case of `CN(C)N1C(=O)SCC(c2ccccc2)(c2ccccc2)C1=O`, the TGI in the assay on HOP-92 NSCLC, in the assay on NCI-H460 lung, in the assay on SN12C renal, in the assay with UO-31 renal, with HT29 colon and in the assay with ACHN renal was > 100 µM in each case. The TGI in the assay with HS 578T breast, with NCI-H226 lung, with HCT-15 colon and in the assay with PC-3 prostate was > 100 µM in each case.
Turning to `COc1cc(C2=NN(C(C)=O)C(c3cc(OC)c(OC)c(OC)c3)C2)ccc1O` (configuration not stated), the GI50 is 67 µM with HOP-92 NSCLC; 0.346 µM in the assay with NCI-H460 lung; 0.882 µM with SN12C renal; 0.809 µM in the assay with UO-31 renal; 0.358 µM in the assay with HT29 colon; 0.614 µM in the assay with ACHN renal. In addition, the GI50 was 0.275 µM with HS 578T breast, 23.6 µM in the assay on NCI-H226 lung, 0.392 µM with HCT-15 colon and 0.304 µM in the assay on PC-3 prostate. For the same compound, the TGI with HOP-92 NSCLC is > 100 µM; in the assay with NCI-H460 lung, > 40.8 µM; with SN12C renal it was > 100 µM; in the assay on UO-31 renal it was > 100 µM; in the assay on HT29 colon, > 100 µM; in the assay on ACHN renal it was > 100 µM. Moreover, the TGI in the assay on NCI-H226 lung, in the assay on HCT-15 colon and in the assay with PC-3 prostate was > 100 µM each time.
Turning to `c1ccc(-c2nc3n(c2-c2ccc4c(c2)OCO4)CCC3)nc1`, the GI50 with HOP-92 NSCLC is 3.48 µM; with NCI-H460 lung, 4.51 µM; with SN12C renal, 7.56 µM; in the assay with UO-31 renal, 0.611 µM; with HT29 colon it was 7.79 µM; in the assay on ACHN renal, 0.993 µM. The GI50 with HS 578T breast is 8.24 µM; in the assay on NCI-H226 lung, 4.54 µM; in the assay with HCT-15 colon, 0.766 µM; in the assay with PC-3 prostate, 6.75 µM. Also, the TGI with HOP-92 NSCLC is 20.8 µM; with NCI-H460 lung it was 13.3 µM; in the assay with SN12C renal, > 25 µM; in the assay with UO-31 renal, 8.58 µM; in the assay on HT29 colon, > 25 µM; in the assay with ACHN renal, > 25 µM. In addition, the TGI with HS 578T breast is > 25 µM; in the assay with NCI-H226 lung, 17 µM; in the assay with HCT-15 colon, > 25 µM; in the assay on PC-3 prostate, > 25 µM.

(Values after PubChem BioAssay (NCI).)
